Test results: publication PMC5920042, “KH176 Safeguards Mitochondrial Diseased Cells from Redox Stress-Induced Cell Death by Interacting with the Thioredoxin System/Peroxiredoxin Enzyme Machinery” (Scientific Reports, 2018)

What was measured:
[1] = Intracellular conversion of KH176 into KH176m (LC-MS/MS); conditions: 24 hours incubation with 3 µM KH176
Method: Cells were seeded at a density of 125 × 10^3 cells/well into 6-wells transparent plates (#657160, Greiner Bio-one) and incubated for 24 h. The culture medium was then replaced with fresh medium containing 3 µM KH176 and the cells were incubated for an additional 24 h. At the end of the treatment time, cells were washed twice with ice-cold PBS (#200120169, Thermo Fischer Scientific) before deprotenization with perchloric acid. The samples were then analyzed with standard LC-MS/MS system (Accela HPLC system, Thermo Fischer Scientific) equipped with a Zorbax Eclipse Plus C18 analytical column (Rapid Resolution HD 1.8 μm; 50 × 2.1 mm, Agilent, USA) and coupled with a UHPLC Guard Zorbax Eclipse Plus C18 pre-column (1.8 µm; 5 × 2.1 mm, Agilent). After separation the eluate was directly passed into a TSQ Vantage tandem mass spectrometer (Thermo Fischer Scientific) equipped with an electro-spray ionization source. Detection of the compounds was based on isolation of the protonated molecular ion, [M + H]+, and subsequent MS/MS fragmentations and selected reaction monitoring were performed. Proprietary compounds of Khondrion were used as internal standards.

[2] = test system: OXPHOS deficient cell lines; experiment: Redox Stress Survival assay, extended panel of OXPHOS deficient cell lines; type: cell-based; conditions: Homo sapiens, BSO insult, read-out: EC50 values, range over the panel of cell lines
Method: Cells were seeded at a density of 4 × 10^3 cells/well into 96-wells black plates and incubated for 24 h. To induce redox stress, semi-logarithmic dilutions of buthionine sulphoximine (BSO, #B2515, Sigma Aldrich) up to 100 µM were added to the cells in culture medium and incubated for 24 h. Cell viability was assessed by quantification of cellular conversion of Calcein AM into fluorescent Calcein. Briefly, after having discarded the BSO containing medium, cells were washed once with M199 without phenol red and loaded with 2 µM Calcein AM (#65-0853-39, Affimetrix eBioscience) in M199 without phenol red for 25 min. At the end of the incubation period, the excess of the dye was washed with M199 without phenol red and Calcein fluorescence was measured with a scanning microplate reader (BMG FLUOstar Omega; Ex. 480 nm, Em. 520 nm). For compound screening and target identification measurements cells were treated with 200 µM BSO alone or in co-incubation with semi-logarithmic dilutions of the test compound. Additionally, where indicated, increasing doses of Auranofin (AFN, #BML-EI206-0100, Enzo) or Aurothioglucose (ATG, #A0606, Sigma Aldrich) were co-incubated with BSO and the test compound. In all cases, cell viability was assessed 24 h after the treatment.

[3] = cited from earlier work

Structure (SMILES) | Ratio KH176m/KH176 in cells [1] | EC50 [2] | Safety in Phase 1 ([3]; healthy adult male volunteers, NCT02544217) | Pharmacokinetic properties in Phase 1 ([3]; human, in vivo)
CC1=C(C)C(=O)C(CC[C@](C)(O)C(=O)N[C@@H]2CCCNC2)=C(C)C1=O [KH176m] | 0.48 |  |  | 
Cc1c(C)c2c(c(C)c1O)CC[C@@](C)(C(=O)N[C@@H]1CCCNC1)O2.Cl [KH176, (S)-6-hydroxy-2,5,7,8-tetramethyl-N-((R)-piperidin-3-yl)chroman-2-carboxamide hydrochloride] |  | 0.035 to 0.27 µM | acceptable safety | good pharmacokinetic properties
